Test results from patent US9615577B2, “Herbicidally active cyclic dione compounds, or derivatives therefor, substituted by a phenyl which has an alkynyl-containing substituent” (Syngenta Limited, priority 2012, dated 2017).

Assays:
Type in all cases: in vivo
[1] = test system: Abutilon theophasti Medik. (ABUTH); test: Test 1A glasshouse assay for herbicidal activity, pre-emergence; settings: 312 h, 250 g/ha, evaluated after 13 days, read-out: percentage phytotoxicity ABUTH
Method: (§1) Seeds of a variety of test species were sown in standard soil in pots. After cultivation for one day (pre-emergence) or after 8 days cultivation (post-emergence) under controlled conditions in a glasshouse (at 24/16° C., day/night; 14 hours light; 65% humidity), the plants were sprayed with an aqueous spray solution derived from the formulation of the technical active ingredient in acetone/I water (50:50) solution containing 0.5% Tween 20 (polyoxyethelyene sorbitan monolaurate, CAS RN 9005-64-5). The test plants were then grown in a glasshouse under controlled conditions in a glasshouse (at 24/16° C., day/night; 14 hours light; 65% humidity) and watered twice daily. After 13 days for pre and post-emergence, the test was evaluated visually for percentage phytotoxicity to the plant (where 100=total damage to plant; 0=no damage to plant).
(§2) Alopecurus myosuroides (ALOMY), Setaria faberi (SETFA), Echinochloa crus-galli (ECHCG), Solanum nigrum (SOLNI), Amaranthus retroflexus (AMARE), Ipomoea hederacea (IPOHE), and Abutilon theophasti Medik. (ABUTH, common English name “velvetleaf”). Of these, Alopecurus myosuroides (ALOMY), Setaria faberi (SETFA), and Echinochloa crus-galli (ECHCG) are grassy monocotyledonous weeds.

[2] = test system: Alopecurus myosuroides (ALOMY); test: as above; settings: 312 h, 250 g/ha, evaluated after 13 days, read-out: percentage phytotoxicity ALOMY
Method: as §1, §2

[3] = test system: Amaranthus retroflexus (AMARE); test: as above; settings: 312 h, 250 g/ha, evaluated after 13 days, read-out: percentage phytotoxicity AMARE
Method: as §1, §2

[4] = test system: Echinochloa crus-galli (ECHCG); test: as above; settings: 312 h, 250 g/ha, evaluated after 13 days, read-out: percentage phytotoxicity ECHCG
Method: as §1, §2

Setaria faberi (SETFA) [5] = test: as above; settings: 312 h, 250 g/ha, evaluated after 13 days, read-out: percentage phytotoxicity SETFA
Method: as §1, §2

[6] = test system: Abutilon theophasti Medik. (ABUTH); test: Test 1A glasshouse assay for herbicidal activity, post-emergence; settings: 312 h, evaluated after 13 days, read-out: percentage phytotoxicity ABUTH
Method: as §1, §2

[7] = test system: Alopecurus myosuroides (ALOMY); test: as above; settings: 312 h, evaluated after 13 days, read-out: percentage phytotoxicity ALOMY
Method: as §1, §2

[8] = test system: Amaranthus retroflexus (AMARE); test: as above; settings: 312 h, evaluated after 13 days, read-out: percentage phytotoxicity AMARE
Method: as §1, §2

[9] = test system: Echinochloa crus-galli (ECHCG); test: as above; settings: 312 h, evaluated after 13 days, read-out: percentage phytotoxicity ECHCG
Method: as §1, §2

Setaria faberi (SETFA) [10] = test: as above; settings: 312 h, evaluated after 13 days, read-out: percentage phytotoxicity SETFA
Method: as §1, §2

[11] = test system: Alopecurus myosuroides (ALOMY); test: Biological Example 2 comparative herbicidal data, post-emergence glasshouse screen; settings: 312 h, read-out: Post-emergence herbicidal activities (percentage phytotoxicity) ALOMY; for pest or weed control at 8 g/ha: 8 g/ha application rate; for pest or weed control at 30 g/ha: 30 g/ha application rate
Method: as §1
(§3) Comparative herbicidal data is given below for certain exemplified compounds with 4-(prop-1-ynyl)-2,6-dimethylphenyl or 4-(chloroethynyl)-2,6-dimethylphenyl headgroups, compared to the corresponding compounds with either 4-ethynyl-2,6-dimethylphenyl or 2,4,6-trimethylphenyl headgroups, as follows. Comparative herbicidal data is also given below for certain exemplified compounds with 4-(prop-1-ynyl)-2-chloro-6-methoxyphenyl headgroups, compared to the corresponding compounds with 4-ethynyl-2-chloro-6-methoxyphenyl or 4-(but-1-ynyl)-2-chloro-6-methoxyphenyl or 4-methyl-2-chloro-6-methoxyphenyl or 2-chloro-6-methoxyphenyl headgroups, as follows.
(§4) Except where specified otherwise, the glasshouse screen for herbicidal activity is substantially the same as that presented in Biological Example 1A (Test 1A) hereinabove. The weed abbreviations are as defined in Biological Example 1A.

[12] = test system: Echinochloa crus-galli (ECHCG); test: as above; settings: 312 h, read-out: Post-emergence herbicidal activities (percentage phytotoxicity) ECHCG; for pest or weed control at 8 g/ha: 8 g/ha application rate; for pest or weed control at 30 g/ha: 30 g/ha application rate
Method: as §1, §3, §4

Setaria faberi (SETFA) [13] = test: as above; settings: 312 h, read-out: Post-emergence herbicidal activities (percentage phytotoxicity) SETFA; for pest or weed control at 8 g/ha: 8 g/ha application rate; for pest or weed control at 30 g/ha: 30 g/ha application rate
Method: as §1, §3, §4

[14] = test system: Amarantus retroflexus (AMARE); test: as above; settings: Amaranthus retroflexus, read-out: Post-emergence herbicidal activities (percentage phytotoxicity) AMARE; for pest or weed control at 8 g/ha: 8 g/ha application rate; for pest or weed control at 30 g/ha: 30 g/ha application rate
[15] = test system: Abutilon theophasti Medik. (ABUTH); test: as above; settings: read-out: Post-emergence herbicidal activities (percentage phytotoxicity) ABUTH; for pest or weed control at 8 g/ha: 8 g/ha application rate; for pest or weed control at 30 g/ha: 30 g/ha application rate

SMILES	pest or weed control at 250 g/ha [1] [%]	pest or weed control at 250 g/ha [2] [%]	pest or weed control at 250 g/ha [3] [%]	pest or weed control at 250 g/ha [4] [%]	pest or weed control at 250 g/ha (Setaria faberi (SETFA) [5]) [%]	pest or weed control at 250 g/ha [6] [%]	pest or weed control at 250 g/ha [7] [%]	pest or weed control at 250 g/ha [8] [%]	pest or weed control at 250 g/ha [9] [%]	pest or weed control at 250 g/ha (Setaria faberi (SETFA) [10]) [%]	pest or weed control at 8 g/ha [11] [%]	pest or weed control at 30 g/ha [11] [%]	pest or weed control at 8 g/ha [12] [%]	pest or weed control at 30 g/ha [12] [%]	pest or weed control at 8 g/ha (Setaria faberi (SETFA) [13]) [%]	pest or weed control at 30 g/ha (Setaria faberi (SETFA) [13]) [%]	pest or weed control at 8 g/ha [14] [%]	pest or weed control at 30 g/ha [14] [%]	pest or weed control at 8 g/ha [15] [%]	pest or weed control at 30 g/ha [15] [%]	other results
CC#Cc1cc(Cl)c(C2C(=O)CCCC2=O)c(OC)c1 [Compound A-22, 2-(2-Chloro-6-methoxy-4-prop-1-ynyl-phenyl)cyclohexane-1,3-dione]	60	90	70	100	100	70	90	0	100	100	10	60	80	90	70	80	0	20	0	10	pest or weed control at 30 g/ha [6]: 10%; pest or weed control at 30 g/ha [7]: 60%; pest or weed control at 30 g/ha [8]: 20%; pest or weed control at 30 g/ha [9]: 90%; pest or weed control at 30 g/ha (Setaria faberi (SETFA) [10]): 80%
CC#Cc1cc(C)c(C2C(=O)CC(CC(C)SC)CC2=O)c(C)c1 (stereo not drawn) [Compound A-24, 2-(2,6-Dimethyl-4-prop-1-ynyl-phenyl)-5-(2-methylsulfanylpropyl)cyclohexane-1,3-dione]	20	90	80	100	100	60	100	60	100	100	–	90	–	100	–	100	–	0	–	0	pest or weed control at 30 g/ha [6]: 0%; pest or weed control at 30 g/ha [7]: 90%; pest or weed control at 30 g/ha [8]: 0%; pest or weed control at 30 g/ha [9]: 100%; pest or weed control at 30 g/ha (Setaria faberi (SETFA) [10]): 100%
C#Cc1cc(Cl)c(C2C(=O)CCCC2=O)c(OC)c1 [Compound B-2, 2-(2-Chloro-4-ethynyl-6-methoxy-phenyl)-3-hydroxy-cyclohex-2-en-1-one]	10	60	10	90	90	0	70	0	100	90	0	0	0	80	10	70	0	0	0	0	–
C#Cc1cc(Cl)c(C2C(=O)C3CCC(C3)C2=O)c(OC)c1 (stereo not drawn) [Compound B-3, 3-(2-Chloro-4-ethynyl-6-methoxy-phenyl)bicyclo[3.2.1]octane-2,4-dione]	100	80	90	90	100	0	80	0	100	90	0	30	20	70	20	–	0	0	0	0	–
CCC#Cc1cc(Cl)c(C2C(=O)C3CCC(C3)C2=O)c(OC)c1 (stereo not drawn) [Compound B-4]	10	100	40	100	70	70	100	30	100	90	–	60	–	80	–	70	–	20	–	0	–
COc1cc(C)cc(Cl)c1C1C(=O)C2CCC(C2)C1=O (stereo not drawn) [Compound X-5, reference compound]	–	–	–	–	–	–	–	–	–	–	0	30	0	80	20	60	30	30	0	10	–
COc1cccc(Cl)c1C1C(=O)CC2(CCOCC2)CC1=O [Compound X-6, reference compound]	–	–	–	–	–	–	–	–	–	–	–	20	–	10	–	10	–	20	–	0	–
CSCCC1CC(=O)C(c2c(C)cc(C)cc2C)C(=O)C1 (stereo not drawn) [Compound X-7, reference compound]	–	–	–	–	–	–	–	–	–	–	0	30	0	10	0	20	0	0	0	0	–
CSC(C)CC1CC(=O)C(c2c(C)cc(C)cc2C)C(=O)C1 (stereo not drawn) [Compound X-8, reference compound]	–	–	–	–	–	–	–	–	–	–	–	70	–	70	–	80	–	0	–	0	–
